In patent US10138212B2, “Aminoquinazoline compounds as A2A antagonist” (Merck Sharp & Dohme Corp., priority 2015, dated 2018):

Key:
human A2a receptor = human A2a receptor (Homo sapiens (Human), UniProt P29274); test: A2a competition binding assay using Scintillation Proximity technology
Procedure: (§1) Binding affinities of compounds of the invention for the human A2a receptor were determined in a competition binding assay using Scintillation Proximity technology. Thus, 1* μg, or preferably 0.25 μg of membranes from HEK293 cells expressing the human A2a receptor were incubated with a compound of the invention at concentrations ranging from 3000 nM to 0.15 nM in a reaction mixture containing also 0.5 nM of a tritiated form of 5-amino-7-[2-phenethyl]-2-(furan-2-yl)-7H-pyrazolo[4,3-e][1,2,4]triazolo[1,5-c]pyrimidine (the tritiated compound) and 25 μg of wheat germ agglutin-coated yttrium silicate SPA beads for one hour at room temperature with agitation. The beads were then allowed to settle to the bottom of the wells for 1 hr, after which the membrane-associated radioactivity was determined by scintillation counting in a TopCount microplate reader. Ki values were determined using the Cheng-Prusoff equation.
HEK293 cells expressing the human, rat, dog or monkey adenosine 2a receptor (Purchased from Perkin-Elmer # RBHA2AM400UA).
The Tritiated compound was prepared in-house by MRL Radiochemistry according to published methods.
Wheat germ agglutinin-coated yttrium silicate SPA beads (GE Healthcare #RPNQ0023). Dilute to 25 mg/ml in assay buffer.
Assay Buffer was prepared in house: Dulbecco's calcium and magnesium free phosphate buffered saline+10 mM MgCl2
Adenosine deaminase from calf intestine, 10 mg/2 ml (Roche #10 102 105 001).
A2a antagonist standard (9-chloro-1-(2-furanyl)-[1,2,4]triazolo1,5-c]quinazolin-5-amine from Tocris Bioscience)
Make eight 1:3 serial dilutions in 100% DMSO from a 3 mM compound stock
Transfer 50 nl of compound into a 384-well OptiPlate (Perkin Elmer).
Typically, final concentrations of compound used in the assay ranged from 3000 nM to 0.152 nM.
Dilute a solution of the Tritiated compound to 1.25 nM in assay buffer. This is a 2.5× solution. The final concentration in the assay is 0.5 nM. Calculate the concentration by counting two 5 μl aliquots.
Use *1 ug or preferrably 0.25 ug of membrane/well. Dilute membranes to 9.7 μg/ml in assay buffer. Treat with 20 ug/ml adenosine deaminase (ADA) for 15 minutes at room temperature to degrade endogenous adenosine.
Use 25 μg/well wheat germ agglutinin-coated yttrium silicate SPA beads.
Mix ADA-treated membranes and SPA beads together for 30 min prior to assay.
To the Perkin-Elmer Optiplate-384 containing the compound titration add 20 μl of 2.5× solution of the Tritiated compound and 30 μl of the membrane-bead mixture. Incubate for one hour at room temperature with agitation.
Include total binding (assay buffer+1% DMSO) and non-specific binding (CGS15943, 1 μM) wells.
Allow the beads to settle for one hour.
A curve fitting program (i.e., Prism, Activity Base, Chemcart) is used to determine the EC50. The Ki value is calculated using the Cheng-Prusoff equation. Ki=EC50/(1+(radioligand concentration/Kd))
Using the foregoing assay method, the Ki results were obtained using the compounds of the invention described in Tables IIIa, IIIb, and IV. Each example compound tested is reported in the following format: Example number: A2a Ki reported in nM. Thus, for example, the compound Ex-1 was determined to have an Ki using the above-described assay and calculations, of 10.0 nM.

human A1 receptor = human A1 receptor (Homo sapiens (Human), UniProt P30542); test: A1 competition binding assay using Scintillation Proximity technology; selectivity = A1 binding Ki / A2a binding Ki; conditions: A1 binding Ki divided by A2a binding Ki
Procedure: as §1, with “A1” for “A2a”, “5” for “1* μg, or preferably 0.25 μg”, “CHO-K1” for “HEK293”, “0.7” for “0.5”, “8-Cyclopentyl-1,3-dipropylxanthine” for “5-amino-7-[2-phenethyl]-2-(furan-2-yl)-7H-pyrazolo[4,3-e][1,2,4]triazolo[1,5-c]pyrimidine”, “in a similar fashion described with A2a binding.” for “using the Cheng-Prusoff equation.”
• Cells expressing the human, rat, dog or monkey adenosine 1 receptor (Purchased from Perkin-Elmer # ES-010-M400UA • [^3H]DPCPX (purchased from Perkin-Elmer NET-974, 8-cyclopentyl-1,3-dipropylxanthine, [dipropyl-2,3-^3H(N)]. • Wheatgerm agglutinin-coated yttrium silicate SPA beads (Purchased from GE Healthcare #RPNQ0023). Dilute to 25 mg/ml in assay buffer. Store at 4° C. • Assay Buffer—Dulbecco's phosphate buffered saline without calcium and without magnesium+10 mM MgCl2 • Adenosine deaminase from calf intestine, 10 mg/2 ml (Roche #10 102 105 001). • DMSO • DPCPX (A1 antagonist) from Tocris Bioscience Compound Dilution • Dilute compounds to 1 mM in 100% DMSO
Make serial dilutions as necessary (i.e., 1:10, 1:3) in 100% DMSO.
Dilute 1:20 into assay buffer (i.e. 3 ul into 57 ul buffer). This is a 5× solution in 5% DMSO.
• Dilute [^3H]DPCPX to 1.75 nM in assay buffer. This is a 2.5× solution. The final concentration in the assay is 0.7 nM. Calculate the concentration by counting two 5 ul aliquots. Membrane Preparation • Use 5 ug of membrane/well. Dilute membranes to 250 ug/ml in assay buffer. Treat with 20 ug/ml adenosine deaminase (ADA) for 15 minutes at room temperature to degrade endogenous adenosine. Membrane-Bead Mixture • Use 25 ug/well wheatgerm agglutinin-coated yttrium silicate SPA beads • Mix ADA-treated membranes and SPA beads together for 30 min prior to assay. Assay Assembly • Add in order to a Perkin-Elmer Optiplate-384: 10 ul of 5× compound, 20 ul of 2.5× [^3H]DPCPX, 20 ul membrane-bead mixture. Incubate for one hour at room temperature with agitation. • Include total binding (assay buffer+1% DMSO) and non-specific binding (DPCPX, 1 uM) wells. Counting and Calculations

[1] = * assay run with 1 μg of membranes versus 0.25 μg, HEK293 cells expressing the human A2a receptor
[2] = 0.25 μg of membranes from HEK293 cells expressing the human A2a receptor

Sequence of human A1 receptor (P30542 whole entry): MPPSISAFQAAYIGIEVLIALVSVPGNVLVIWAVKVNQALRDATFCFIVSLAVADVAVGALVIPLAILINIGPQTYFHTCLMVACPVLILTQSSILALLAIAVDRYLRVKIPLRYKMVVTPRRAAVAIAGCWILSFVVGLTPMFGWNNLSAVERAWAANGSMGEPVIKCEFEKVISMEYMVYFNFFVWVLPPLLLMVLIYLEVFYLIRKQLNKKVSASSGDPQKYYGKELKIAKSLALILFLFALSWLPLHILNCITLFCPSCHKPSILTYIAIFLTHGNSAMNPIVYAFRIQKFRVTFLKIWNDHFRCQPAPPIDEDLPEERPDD
Sequence of human A2a receptor (P29274 whole entry): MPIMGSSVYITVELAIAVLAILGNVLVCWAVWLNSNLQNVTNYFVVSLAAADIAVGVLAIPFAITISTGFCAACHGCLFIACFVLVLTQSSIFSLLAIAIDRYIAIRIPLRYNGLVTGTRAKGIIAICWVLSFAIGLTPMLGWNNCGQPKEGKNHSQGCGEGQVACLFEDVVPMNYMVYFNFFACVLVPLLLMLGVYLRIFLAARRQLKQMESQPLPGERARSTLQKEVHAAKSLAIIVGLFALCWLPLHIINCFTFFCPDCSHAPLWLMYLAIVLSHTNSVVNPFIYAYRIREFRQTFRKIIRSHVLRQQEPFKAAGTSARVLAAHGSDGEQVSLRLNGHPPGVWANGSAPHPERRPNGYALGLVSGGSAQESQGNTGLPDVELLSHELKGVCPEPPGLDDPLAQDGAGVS

Row | Structure (SMILES) | Ki (human A2a receptor; [1]) [nM] | A2a selectivity (A2a A1 binding selectivity) (human A1 receptor) | Ki (human A2a receptor; [2]) [nM]
1 | COc1cccc2c(C(=O)NCc3cccc(COCC4CC4)n3)nc(N)nc12 [Example 50, 2-amino-N-[[6-(cyclopropylmethoxy-methyl)-2-pyridyl]methyl]-8-methoxy-quinazoline-4-carboxamide] | – | 160 | 1.3
2 | COc1cccc2c(C(=O)NCc3cccc(Cc4cccnc4)n3)nc(N)nc12 [Example 104, 2-amino-8-methoxy-N-((6-(pyridin-3-ylmethyl)pyridin-2-yl)methyl)quinazoline-4-carboxamide] | 5 | 93 | –
3 | COc1cccc2c(C(=O)NC3CCc4cccnc43)nc(N)nc12 (stereo not drawn) [Example 32, 2-amino-N-(6,7-dihydro-5H-cyclopenta[b]pyridin-7-yl)-8-methoxy-quinazoline-4-carboxamide] | – | 370 | 1.8
4 | COc1cccc2c(C(=O)NCc3cccc(-c4cccc(O)c4)n3)nc(N)nc12 [Example 8, 2-amino-N-[[6-(3-hydroxyphenyl)-2-pyridyl]methyl]-8-methoxy-quinazoline-4-carboxamide] | 3.3 | 4 | –
5 | [2H]C([2H])(NC(=O)c1nc(N)nc2c(OC)cccc12)c1cccc(C([2H])([2H])c2ccc(C(C)(C)OCOC)nc2)n1 [Example 109, 2-amino-N-[dideuterio-[6-[dideuterio-[6-[1-(methoxymethoxy)-1-methyl-ethyl]-3-pyridyl]methyl]-2-pyridyl]methyl]-8-methoxy-quinazoline-4-carboxamide] | 2.3 | 120 | –
6 | [2H]C([2H])(NC(=O)c1nc(N)nc2c(OC)cccc12)c1cccc(C([2H])([2H])c2cccc(OCCOC)c2)n1 [Example 106, 2-amino-N-[dideuterio-[6-[dideuterio-[3-(2-methoxyethoxy)phenyl]methyl]-2-pyridyl]methyl]-8-methoxy-quinazoline-4-carboxamide] | 1.9 | 70 | –
7 | Nc1nc(C(=O)NCC2CC3CCC2C3)c2cccc(F)c2n1 (stereo not drawn) [Example 87, 2-amino-8-fluoro-N-(norbornan-2-ylmethyl)quinazoline-4-carboxamide] | 32 | 3 | –
8 | COc1cccc2c(C(=O)NCc3cccc(CN4CCOCC4)c3)nc(N)nc12 [Example 53, 2-amino-8-methoxy-N-[[3-(morpholinomethyl)phenyl]methyl]quinazoline-4-carboxamide] | – | 63 | 7.1
9 | COc1cccc2c(C(=O)NCc3cccc(COc4ccccc4F)n3)nc(N)nc12 [Example 44, 2-amino-N-[[6-[(2-fluorophenoxy)methyl]-2-pyridyl]methyl]-8-methoxy-quinazoline-4-carboxamide] | – | 531 | 0.2
10 | Cc1cccc(CNC(=O)c2nc(N)nc3c(Cl)cc(Cl)cc23)n1 [Example 93, 2-amino-6,8-dichloro-N-[(6-methyl-2-pyridyl)methyl]quinazoline-4-carboxamide] | – | 55 | 6.5

Results, then the compound that gave them:

Row | Ki (human A2a receptor; [1]) [nM] | A2a selectivity (A2a A1 binding selectivity) (human A1 receptor) | Ki (human A2a receptor; [2]) [nM] | Structure (SMILES)
11 | 23 | 14 | – | COC(=O)c1cccc(CNC(=O)c2nc(N)nc3c(F)cccc23)n1 [Example 75, methyl 6-[[(2-amino-8-fluoro-quinazoline-4-carbonyl)amino]methyl]pyridine-2-carboxylate]
12 | – | 1 | 291 | Nc1nc(C(=O)NCc2cccc3cccnc23)c2cccc(-c3cncnc3)c2n1 [Example 97, 2-amino-8-pyrimidin-5-yl-N-(8-quinolylmethyl)quinazoline-4-carboxamide]
13 | – | 112 | 0.2 | CCn1cccc(CNC(=O)c2nc(N)nc3c(OC)cccc23)c1=O [Example 13, 2-amino-N-[(1-ethyl-2-oxo-3-pyridyl)methyl]-8-methoxy-quinazoline-4-carboxamide]
14 | – | 19 | 4.5 | Nc1nc(C(=O)NCc2cccc(-c3cnco3)n2)c2cccc(F)c2n1 [Example 70, 2-amino-8-fluoro-N-[(6-oxazol-5-yl-2-pyridyl)methyl]quinazoline-4-carboxamide]
15 | – | 319 | 0.5 | COc1cccc2c(C(=O)NCc3cccc(C)n3)nc(N)nc12 [Example 15, 2-amino-8-methoxy-N-[(6-methyl-2-pyridyl)methyl]quinazoline-4-carboxamide]
16 | – | 8 | 229 | Nc1nc(C(=O)NCc2ncccn2)c2cccc(I)c2n1 [Example 99, 2-amino-8-iodo-N-(pyrimidin-2-ylmethyl)quinazoline-4-carboxamide]
17 | 7.7 | 11 | – | CSc1cccc2c(C(=O)NCc3cccc4cccnc34)nc(N)nc12 [Example 94, 2-amino-8-methylsulfanyl-N-(8-quinolylmethyl)quinazoline-4-carboxamide]
18 | – | 33 | 225 | Cc1ccc(CCNC(=O)c2nc(N)nc3c(F)cccc23)nc1 [Example 73, 2-amino-8-fluoro-N-[2-(5-methyl-2-pyridyl)ethyl)quinazoline-4-carboxamide]
19 | – | 62 | 0.8 | COc1ccc(C)c(CNC(=O)c2nc(N)nc3c(F)cccc23)n1 [Example 77, 2-amino-8-fluoro-N-[(6-methoxy-3-methyl-2-pyridyl)methyl]quinazoline-4-carboxamide]
20 | – | 113 | 1.2 | COc1cccc2c(C(=O)NCc3cccc(-c4ccccn4)n3)nc(N)nc12 [Example 10, 2-amino-8-methoxy-N-[[6-(2-pyridyl)-2-pyridyl]methyl]quinazoline-4-carboxamide]
21 | 0.7 | 12 | – | Nc1nc(C(=O)NCc2cccc3cccnc23)c2cccc(Br)c2n1 [Example 96, 2-amino-8-bromo-N-(8-quinolylmethyl)quinazoline-4-carboxamide]
